Literature values as cited in patent US20080305171A1, “PYRROLOPYRAZINE, FORMULATIONS, METHODS OF MANUFACTURE, AND METHODS OF USE THERE” (priority 2007, published 2008).

Conditions: ethanol:phosphate buffer solution, increasing temperature and pH

## CN1CCN(C(=O)OC2c3nccnc3C(=O)N2c2ccc(Cl)cn2)CC1 (racemic) [COMPOUND II, 6-(5-chloro-2-pyridyl)-5-[(4-methyl-1-piperazinyl)carbonyloxy]-7-oxo-6,7-dihydro-5H-pyrrolo[3,4-b]pyrazine]
  chemical and isomeric stability in solution: both degrades and racemizes
